Experimental data reported in patent US20260240865A1, “HARNESSING IKZF:BETA-CATENIN COMPLEXES IN THE TREATMENT OF LYMPHOCYTE ASSOCIATED DISEASES OR CONDITIONS” (Yale University, priority 2022, published 2026).
“Also recorded” adds a separate entry of the source.

Legend:
β-catenin = assay: Western blot of colonies from MDS-derived CD34+ GFP+ progenitor cells; type: cell-based, human; settings: large colonies after 12 days
Description: (§1) Cells were washed twice with ice-cold PBS and were lysed in CelLytic buffer (Sigma-Aldrich) supplemented with 1% protease inhibitor cocktail (Roche Diagnostics), 1% phosphatase inhibitor cocktail (EMD Millipore) and 1 mM PMSF (CST) on ice. 10-20 μg of cell lysates were separated on precast gels (Bio-Rad) and transferred on nitrocellulose membranes (Bio-Rad). After blocking for an hour in TBS-T with 2% BSA, membranes were probed with the appropriate primary antibodies listed in Table 6. Membranes were incubated with alkaline-phosphatase conjugated secondary antibodies (Invitrogen) and analyzed with Chemi Doc™ MP Imaging System (Bio-Rad). For fractionation experiment Nuclear and Cytoplasmic Extraction Reagent (Thermo Scientific) was used according to manufacturer's instructions.
For colony forming assays, 10,000 mouse BCR-ABL1 or NRAS^G12D were grown on MethoCult medium (M3231 or M3630 (with IL-7) respectively, StemCell Technologies) in 3-cm diameter dishes with an extra dish filled with water to prevent evaporation. […] For all colony forming experiments, colonies were imaged and counted using GelCount (Oxford Optronix) and 7-14 days after plating.
Non-targeted and targeted CD34^+ GFP^+ cells were stimulated in the presence of human cytokines and colony forming assays were performed. Large colonies were analyzed by Western blot after 12 days.

[1] = test system: β-catenin and MYC protein levels in B-ALL cells; assay: Western blot of β-catenin and MYC after GSK3β inhibitor treatment; type: cell-based, human
Description: as §1

[2] = test system: B-lymphoid leukemia and lymphoma cells; assay: Cell viability assay (Cell Titer Glo 2.0) with GSK3β inhibitors; type: cell-based, human
[3] = cited from earlier work
[4] = test system: B-lymphoid leukemia and lymphoma cells; assay: Cell viability assay (Cell Titer Glo 2.0) with GSK3β inhibitors; type: cell-based, human; remark: listed apart in the source
Description: Forty thousand patient-derived pre-B ALL cells or twenty thousand leukemia/lymphoma cell lines or ten thousand colon/lung cancer cells were seed in a volume of 80 μl in complete growth medium on 96-well plate. GSK3β3 inhibitors were added at the indicated concentration in a total volume of 100 μl. After treatment for 3 days, Cell Titer Glo 2.0 assays (Promega) were performed according to the manufacturer's instructions. Relative viability was calculated by measuring the luminescence value and normalizing it to baseline values of untreated cells.
(§2) Data are shown as mean±s.d. unless stated. Statistical analysis was performed by GraphPad Prism 7 (GraphPad Software Inc.) using unpaired two-tailed t test or log-rank test as indicated in figure legends. Significance was considered at P<0.05. Kaplan-Meier survival analysis was used to estimate OS with GraphPad Prism 7. The investigators were not blinded to allocation during experiments and outcome assessment. Experiments were repeated to ensure reproducibility of the observations.

autoreactive B-cells = assay: Genetic mouse models for SLE and RA treated with GSK3β inhibitor; type: in vivo; settings: 4 injections i.p., 20 mg/kg, once full-blown disease has developed
From the text: β-catenin activation in mouse models for SLE. As mouse models for SLE, lupus-prone B6.Sle1.Yaa mice will be studied, to be crossed on the B6Mb1^+/Crex Ctnnb1^ex3fl/fl model for B-cell-specific accumulation of β-catenin (FIG. 25). B6.Sle1.Yaa mice only require one backcross then intercross for Sle1 homozygosity, a large locus on chromosome 1 that promotes lupus susceptibility. One caveat of the B6.Sle1.Yaa model is that these are male mice, by contrast to female-dominant lupus in patients, since disease penetrance requires a second copy of Tlr7 on the Y chromosome (the Yaa allele). The B6.Sle1.Yaa faithfully replicates these outcomes as observed in other lupus-prone strains, including female predominant strains such as NZB/WF1 and MRL/1pr, or single gene models.
β-catenin activation in mouse models for RA. For collagen-induced arthritis (CIA) as a model for RA, disease is modeled on a B6 background with the B6 Mbl^+/Cre×Ctnnb1^ex3fl/fl allele using chicken type II collagen as an immunogen. […] Both models of inflammatory synovitis have been established, CIA induced in DBA1 and B6. The colonies are readily available for analyzing outcomes in these animals, including detailed analysis of B- and T-cell responses, and degree of synovitis and joint damage. […]

[5] = test system: refractory B-ALL PDX (LAX2); assay: In vivo treatment of NSG mice bearing refractory B-ALL patient-derived xenografts
Description: Patient derived BCR-ABL1 ALL were labeled with firefly luciferase and selected by 25 μg ml^−1 blasticidin. 1 million PDX cells pre-treated with LY2090314 (10 μg ml^−1) or vehicle control for four hours. Cells were washed twice and then injected via the tail vein into sublethally irradiated (190 cGy) NSG mice (8-12 week-old, female). LY2090314 or vehicle control (dissolved in 5% DMSO, 45% PEG300 and PBS) were administered intraperitoneally at dose of 12.5 mg kg^−1 body weight twice every day for 20 times. The in vivo expansion and leukemia burden were monitored by luciferase bioimaging (Lago X; Accela). Briefly, D-luciferin (Promega) was dissolved in PBS and injected intraperitoneally at a dose of 2.5 mg per mouse 15 min before measuring luminescent. All mice were anesthetized by 5% isoflurane and continued during detection of light emission with 2% isoflurane introduced through a nose cone. When the mice get the signs of leukemia (hunched back, weight loss and inability to move), they were euthanized. Bone marrow and spleen were collected and flow cytometry analysis was performed to check leukemia engraftment.
as §2

Compound: O=C1NC(=O)C(c2cnc3ccccn23)=C1c1cn2c3c(cc(F)cc13)CN(C(=O)N1CCCCC1)CC2 [LY2090314]
- β-catenin accumulation in non-targeted control colonies (β-catenin): induced accumulation of β-catenin in all 7 non-targeted control colonies
- β-catenin accumulation and MYC suppression ([1]; B-ALL (PDX2) cells, 16 hours, FIGS. 7A, 7C, 18C): induced massive accumulation of β-catenin in parallel with acute suppression of MYC
- MYC suppression in B-ALL cells with deletion of CTNNB1 ([1]; BV173, 20 nM, 16 hours): prevented suppression of MYC
- β-catenin accumulation and MYC suppression in B-cell vs colon and lung cell lines ([1]; pre-B cell and mature B-cell lines, colon and lung cancer cell lines, FIG. 28A): induced rapid accumulation of β-catenin protein and suppression of MYC in Ikaros-expressing B-cell lines but not colon and lung cell lines
- IC50 in epithelial and myeloid cancer cells relative to B-ALL ([2]; 343 epithelial cancer cell lines (Prism Drug Repurposing Secondary Screen) vs B-ALL cell lines): 236 fold
- IC50 in epithelial and myeloid cancer cells relative to B-cell lymphoma ([2]; 343 epithelial cancer cell lines (Prism Drug Repurposing Secondary Screen) vs B-cell lymphoma cell lines): 92 fold
- adverse effects in clinical trials ([3]; Cmax micromolar): lymphopenia
- Outcome: clinical responses ([3]; Phase 1 and 2): No clinical responses
- Outcome: safety ([3]; Phase 1 and 2): Phase 1 and 2, favorable safety
- Outcome: MTD ([3]; i.v.): 80 mg
- safety and tolerability / PK/PD profile in clinical trials ([3]; micromolar plasma concentrations (Cmax)): demonstrated safety and tolerability at micromolar plasma concentrations
- responses in B-ALL PDX with vs without IKZF1-deletion ([4]; 10 patient-derived xenografts, 5 with IKZF1-deletion): no significant differences
- drug-responses in a larger panel of cell lines and PDX ([4]; B-ALL, B-cell lymphoma, myeloid leukemia, colon, lung cancer, 0 up to 200 nM, 3 days): profound responses in B-ALL and B-cell lymphoma cells in the absence of significant effects on myeloid and epithelial tumor cells
- selective cell death / drug response ([4]; B-lymphoid vs myeloid and epithelial cells (PDX2, BV173, LAX2 vs THP1, SW620, H82), 3 days): induced cell death at low nanomolar concentrations selectively in B-lymphoid but not myeloid and epithelial cells; also recorded: B-cell selective activity at low nanomolar concentrations
- responses in B-ALL PDX from chemotherapy-sensitive vs refractory/relapsed patients ([4]; FIG. 7D): did not affect responses
- sensitivity of B-ALL cells with deletion of CTNNB1 ([4]; human B-ALL (BV173) gCTNNB1 vs gNT clones, 3 days): near-complete resistance
- disease outcome in established SLE and RA (autoreactive B-cells): induce disease remission
- leukemia burden (bioluminescence imaging) ([5]; NSG mice with refractory B-ALL PDX, intraperitoneal, single agent vs vehicle): substantially reduced leukemia burden
- overall survival ([5]; NSG mice with refractory B-ALL PDX, intraperitoneal, P=6.5E-05, n=9): significantly extended overall survival
- leukemia-initiation potential ([5]; limiting doses (100-2,500 cells) of B-ALL PDX in transplant recipient mice): reduced the leukemia-initiation potential
- weight loss / dose-limiting toxicity ([5]; treated NSG mice): did not show significant weight loss or other dose-limiting toxicity
